Reference: patent US7384758B2, “Bioluminescent protease assay with modified aminoluciferin or derivatives thereof” (Promeaga Corporation, priority 2002, dated 2008)
Values joined by “and” are separate entries in the source; they are usually repeats but may differ in a detail not shown here. Equal entries are not always repeated.

Assays:
[1] = test system: thermostable firefly luciferase; experiment: luminescent reaction with luciferin or aminoluciferin as luciferase substrate (FIG. 1); assay type: biochemical; settings: substrate for thermostable firefly luciferase, FIG. 1
Description: FIG. 1 depicts relative light units (RLU) for luciferin or aminoluciferin as a substrate for a thermostable firefly luciferase in a luminescent reaction.

trypsin = biological target: T1, trypsin (Bos taurus, UniProt P00760); experiment: trypsin titration, homogeneous luminescent vs fluorescent substrate assay (Examples 1 and 2); assay type: biochemical; settings: for limit of detection (trypsin): 3 S.D. above background noise, amount of trypsin
T1 construct: gene PRSS1
T1 sequence (P00760 24-246): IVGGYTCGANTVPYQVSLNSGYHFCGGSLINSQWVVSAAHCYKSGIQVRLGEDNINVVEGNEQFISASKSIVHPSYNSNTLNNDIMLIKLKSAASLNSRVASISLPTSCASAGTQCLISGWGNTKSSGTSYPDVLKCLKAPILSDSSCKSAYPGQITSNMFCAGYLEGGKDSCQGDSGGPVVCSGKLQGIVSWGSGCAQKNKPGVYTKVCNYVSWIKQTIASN
Procedure: To compare the limit of detection for a luminescence-based and a fluorescence-based assay for trypsin, two substrates, Lys-aminoluciferin (Cbz-modified lysinyl-aminoluciferin) and Arg-Rho-110 (Molecular Probes, Catalog no. R6501), were used. Substrate was resuspended in 100 mM Hepes, pH 7.9, at a concentration of 10 mM and stored at −20° C. The thawed Lys-aminoluciferin substrate, thermostable luciferase (5.2 mg/ml stock), and ATP (0.1 M stock) were diluted in buffer (50 mM HEPES, pH 7.9, 10 mM MgSO4, 1 mM EDTA, pH 8.2 and 0.1% prionex) to make a stock that was 10× the final concentration. The 10× stock was 200 μM Lys-aminoluciferin, 200 μg/ml luciferase, and 2.0 mM ATP. This 10× stock was incubated for at least 90 minutes to eliminate any free aminoluciferin.
Trypsin was prepared for titration as follows: 1 μg/μl stock solution was diluted to 10 ng/50 μl in the same buffer as above (50 mM HEPES, pH 7.9, 10 mM MgSO4, 1 mM EDTA, pH 8.2 and 0.1% prionex). This […] trypsin solution was serially diluted 5 fold to 2 ng, 0.4 ng, 0.08 ng, 0.016 ng, 3.2 pg, 0.64 pg, 0.128 pg, 0.0256 pg and 0.005 pg. The trypsin dilutions were added to two 96-well plates in replicates of 8 at 50 μl per well. Pipette tips were changed for each row to avoid enzyme carryover. Two columns (16 wells) contained buffer only without trypsin.
One of the two plates of the trypsin dilutions was then used to test the Lys-aminoluciferin substrate (FIG. 3). Samples were tested in quadruplicate. The 10× substrate/luciferase/ATP mix was further diluted 5 fold in the above-described buffer to make a 2× stock. 50 μl of this 2× stock was added to each well containing 50 μl of the trypsin titration such that the final 100 μl volume contained 20 μM Lys-aminoluciferin, 200 μM ATP, and 20 μg/ml of thermostable luciferase in buffer (50 mM HEPES, pH 7.9, 10 mM MgSO4, 1 mM EDTA, pH 8.2 and 0.1% prionex). The substrate mix was also added to 12 of the 16 wells containing buffer only without trypsin. The remaining 4 wells were left with buffer only (no substrate mix). This plate was incubated at room temperature and read by luminometer at 45 minutes and 3 hours after adding the substrate mix to the trypsin.
The second plate of trypsin dilutions was used to test the Arg-Rho-110 substrate (FIG. 4). The Arg-Rho-110 substrate was tested at final concentrations of 10 μM and 2.5 μM. 2× stocks of 20 μM and 5 μM were prepared by diluting the substrate in 50 mM HEPES, pH 7.9, 10 mM MgSO4, 1 mM EDTA, pH 8.2 and 0.1% prionex. To each well of the plate containing 50 μl of the trypsin titration was added 50 μl of either the 20 μM or 5 μM 2× stocks of Arg-Rho-110 substrate. The 20 μM stock was added to the first four rows (final concentration of 10 μM in rows A-D) and the 5 μM stock was added to the second four rows (final concentration of 2.5 μM in rows E-H). The substrate mix was also added to 12 of the 16 wells containing buffer only without trypsin. The remaining 4 wells were left with buffer only (no substrate mix). The Arg-Rho-110 plate was incubated at room temperature in the dark for 4.5 hours and read on a fluorimeter.
The signal to noise was calculated as signal-background (no trypsin)/S.D. of background. The limit of detection was determined as 3 S.D. above background noise.
To determine the effect of an overnight pre-incubation of substrate with luciferase, ATP and buffer prior to adding trypsin, a substrate/luciferase/ATP mix was incubated overnight in the dark, at room temperature. […]

caspase 3 = biological target: T2, caspase 3 (Homo sapiens, UniProt P42574); experiment: caspase titration, luminescent vs fluorescent substrate in Apo-ONE buffer (Example 3); assay type: biochemical
T2 construct: approximately 10 mU/ng protein with >75% in active conformation; purchased Upstate Biotech 14-264
T2 sequence (P42574 29-175 limits assumed): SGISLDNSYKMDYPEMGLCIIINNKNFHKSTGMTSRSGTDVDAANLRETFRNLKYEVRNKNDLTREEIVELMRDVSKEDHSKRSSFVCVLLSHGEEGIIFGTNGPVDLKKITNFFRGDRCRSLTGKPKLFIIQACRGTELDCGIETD
T2 sequence (P42574 176-277 limits assumed): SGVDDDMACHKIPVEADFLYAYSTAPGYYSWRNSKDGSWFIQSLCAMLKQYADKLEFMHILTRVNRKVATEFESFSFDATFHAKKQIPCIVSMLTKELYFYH
Procedure: To conduct a direct comparison between luminescent and fluorescent substrates for caspase 3, DEVD-Rho-110 and DEVD-aminoluciferin were employed. The DEVD-aminoluciferin substrate/luciferase/ATP mixture was prepared first and preincubated prior to the enzyme assay to eliminate free aminoluciferin. To 1.25 ml of Apo-ONE™ buffer (Promega) was added 10 μl of DEVD-luciferin (10 mM stock), 10 μl of ATP (0.1 M stock), 50 μl of MgSO4 (1 M stock), 50 μl of prionex (10% stock), and 48 μl of luciferase (5.2 mg/ml stock). The volume was brought up to 2.5 ml with nanopure, autoclaved water to make a 2× stock of 40 μM DEVD-luciferin, 400 μM ATP, 0.2% prionex, and 100 μg/ml luciferase. This stock was incubated overnight at room temperature.
Caspase (Upstate Biotech, Cat. No.14-264; approximately 10 mU/ng protein with >75% in active conformation) was diluted 550 fold in a 50/50 mixture of Apo-ONE™ buffer/RPMI-1640 culture media, from 1 U/μl to 1.8 mU/μl. 50 μl of Apo-One™ buffer/RPMI-1640 media was added to each well in two 96-well plates. Then, 5.5 μl of the caspase stock was added to the 50 μL of Apo-One™ buffer/RPMI-1640 media for a concentration of about 10 mU/50 μl. Ten serial dilutions of 10 fold each were carried out in the wells by serially transferring 5.5 μl of caspase solution into the 50 μl of the buffer/media mix. The final caspase concentrations were 10 mU, 1 mU, 0.1 mU, 0.01 mU, 0.001 mU, 0.1 μU, 0.01 μU, 0.001 μU, 0.1 nU, and 0.01 nU/well. The last two columns were buffer/media only without caspase.
To one plate of caspase dilutions, 50 μl of the DEVD-aminoluciferin substrate mixture was added to each well for final concentrations of 20 μM DEVD-aminoluciferin, 200 μM ATP, 10 mM MgSO4, 0.1% prionex, and 50 μg/ml luciferase. […] Readings were taken for each plate at 1 hour, 3 hours, and 5 hours on a luminometer and fluorimeter, respectively.
Signal to noise was calculated as above and the limit of detection was determined as 3 S.D. above the background noise.

Jurkat cells = experiment: caspase activity in Jurkat cells induced to undergo apoptosis with anti-FAS antibody (Example 4); assay type: cell-based; settings: for sensitivity greater than the Arg-Rho110: Jurkat cells, FIG. 11
Procedure: The DEVD-aminoluciferin caspase substrate and the DEVD-Rho-110 caspase substrate were used to measure caspase activity in Jurkat cells induced to undergo apoptosis with anti-FAS antibody. DEVD-luciferin and luciferase were prepared for pre-incubation prior to use in the assay. Substrate, ATP, MgSO4, prionex and luciferase were diluted from the same stock as in Example 3 to the same 2× concentration, except that the components were diluted in autoclaved water rather than Apo-ONE™. This mixture was incubated overnight in the dark (covered in foil).
The next day, Jurkat cells, grown in RPMI-1640 media with 10% Fetal Bovine Serum (FBS) to a density of 5×10^5 cells/ml, were treated with anti-FAS antibody. To one vial of 8 ml of media was added 1.6 μl of antibody (1:5000 dilution); a second vial contained 8 ml of media and no antibody. Cells were incubated for 4 hours at 37° C., in 5% CO2 Cells were then centrifuged and resuspended in 12.5 ml of RPMI-1640 to a density of 3.2×10^5 cells/ml, then diluted 1:1 with Apo-ONE™ buffer for 1.6×10^5 cells/ml, or 8,000 per 50 μl.
Two 96-well plates were prepared such that on each, the first column was left empty, and 50 μl of RPMI-1640:Apo-ONE™ solution was placed in each of the remaining wells. To the first four rows of each plate, […] of the “induced” cell solution (8,000 cells) was added and the cells then serially diluted from 8,000 cells/well, to 4,000 cells/well and so on, down to 7.8 cells/well. The twelfth column was left without cells and with only 50 μl of RPMI-1640:Apo-ONE™ solution. […]
Signal to noise was calculated (signal minus background (no cell control)/S.D. of background) and the limit of detection was determined as 3 S.D. above the background noise.
One of the two plates was treated with 50 μl of either DEVD-aminoluciferin/luciferase mix or with DEVD-Rho-110/Apo-ONE™ (Promega G778B and G777B). Each plate was mixed on a plate shaker for 30 seconds then incubated at room temperature and read on either a Dynex luminometer or Fluoroskan plate reader at 1 hour, 2 hours, 4 hours and one day later.

Compound O=C(O)[C@H]1CSC(c2nc3ccc(O)cc3s2)=N1 [luciferin] has a Km [1] of roughly 0.6 µM.

For “Cbz-modified lysinyl-aminoluciferin [Lys-aminoluciferin]”, the “limit of detection (trypsin)” value (trypsin) was 3.0 pg, the “sensitivity greater than Arg-Rho-110” value (trypsin; depending on the time of the reading, FIG. 9) was 3-10 fold and 3 to 10 fold and the “less enzyme detected / more sensitive than fluorescence-based assay” value (trypsin; luminescent vs rhodamine-110 trypsin substrate) was 4-10 times.

With N=C(N)NCCCC(NC(=O)OCc1ccccc1)C(=O)Nc1ccc2c(c1)Oc1cc(NC(=O)C(CCCNC(=N)N)NC(=O)OCc3ccccc3)ccc1C21OC(=O)c2ccccc21 (stereo not drawn) [Arg-Rho-110, reference compound] the “limit of detection (trypsin)” value (trypsin) was 12 to 30 pg and the “limit of detection (trypsin)” value (trypsin; listed as arginine2-rhodamine-110) was 12 to 30 pg.

In the case of “N-(Z-Asp-Glu-Val-Asp)-aminoluciferin [DEVD-aminoluciferin]”, the “more sensitive than DEVD-Rho-110” value (caspase 3; FIG. 10, Example 3) is reported as 10-100 times, the “sensitivity greater than the Arg-Rho110” value (caspase 3; depending on the time of the readings, FIG. 10) is reported as 50-300 fold and the “limit of detection (purified caspase)” value (caspase 3; substrate for caspase 3 and 7, purified caspase, 3 S.D. above background) is reported as 0.2 to 0.5 μU. For the same compound, the “sensitivity greater than the Arg-Rho110” value (Jurkat cells; 1 hour time point) was 10 fold, the “sensitivity greater than the Arg-Rho110” value (Jurkat cells; at 4 hours) was “about 2 fold” and the “limit of detection of caspase expressing cells” value (Jurkat cells; at 1 hour) was 15 cells.
